Data on five compounds can be found in US10654896B2, “FoxP3-binding peptides and uses thereof” (FUNDACIÓN PARA LA INVESTIGACIÓN MÉDICA APLICADA, priority 2016, dated 2020).

Data set [1] has as its target T1, human FOXP3 (FOXP3-6His) (Homo sapiens, UniProt Q9BZS1).
T1 construct: 6xHis (C); made in house; host or cells: E. coli BL21 (DE3)
T1 sequence (Q9BZS1 1-431): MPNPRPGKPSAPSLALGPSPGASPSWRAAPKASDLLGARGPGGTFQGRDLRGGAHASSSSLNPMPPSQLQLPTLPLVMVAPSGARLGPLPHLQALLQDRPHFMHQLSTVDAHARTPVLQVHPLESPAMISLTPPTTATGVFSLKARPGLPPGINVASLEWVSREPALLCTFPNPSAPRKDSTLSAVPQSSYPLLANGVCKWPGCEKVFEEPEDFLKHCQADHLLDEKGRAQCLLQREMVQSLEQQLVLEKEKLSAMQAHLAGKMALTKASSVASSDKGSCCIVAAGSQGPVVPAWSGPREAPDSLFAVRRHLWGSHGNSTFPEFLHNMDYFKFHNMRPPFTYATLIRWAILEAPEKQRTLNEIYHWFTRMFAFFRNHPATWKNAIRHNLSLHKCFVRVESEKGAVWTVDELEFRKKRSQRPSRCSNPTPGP
Put plainly: Peptide binding to FOXP3 by surface plasmon resonance (SPR). The following applies: peptides 1-20 μM; ratio to p60 (SEQ ID NO: 1). An excerpt:
(§1) Plasmid pET20b FOXP3-His was generated to produce the human FOXP3 tagged with 6 histidines at the C terminus of the protein. Briefly, plasmid pDEST15-FOXP3 (provided by Dr. Casal, Madrid, Spain) was used as template to amplify FOXP3 by PCR using the primers Upper FOXP3 Ndel catatgcccaaccccaggc (SEQ ID NO: 55) and Lower FOXP3 […] (SEQ ID NO: 56). The resulting fragment was subcloned in pET20b at Ndel and NotI sites. pET45b His-Runx1 was obtained by PCR of activated human CD4 T cells obtained from healthy volunteers (after the signature of an informed consent) using the primers Upper Runx1 atgcgtatccccgtagatg (SEQ ID NO: 57) and Lower Runx1 […] (SEQ ID NO: 58) and the fragment was cloned in pcDNA3.1. Then, pET45b and pcDNA3.1-Runx1 were digested with BamHI and NotI and ligated to obtain pET45b-Runx1. Plasmids were used to transform BL21 cells (DE3; Novagen, Schwalbach, Germany) for the expression of the recombinant protein. The transformed BL21 cells were grown in LB medium at 37° C. (1 liter of final culture medium) (with ampicilin 0.1 mg/ml). Once the OD of the culture was between 0.5 and 1.0, IPTG (0.4 mM, final concentration) was added. Bacteria were then cultured overnight in agitation and centrifuged for 10 min at 8000 rpm. Cell pellet was then resuspended in 4 ml Tris-HCl 0.1 M and frozen at −80° C. Cell pellet was then thawed and incubated with lisozyme (25 KU) and a protease inhibitor cocktail for 15 min at 30° C. before cell lysis induced with a French-press. The resultant pool was then centrifuged during 20 min at 11.000 rpm). The recombinant protein was purified from the soluble fraction of French-press cell extracts by affinity chromatography (Histrap, Pharmacia) following manufacturer's instructions and using an FPLC platform (AKTA, Pharmacia). Plasmid pDEST15-FOXP3 encoding the fusion protein GST-FOXP3 (GST fused to the isoform A from human FOXP3 gene), was transformed into BL21 cells for the expression of the recombinant protein. GST-FOXP3 protein was purified from the soluble fraction of cell extracts obtained, as described above, by affinity chromatography (GSTrap; Amersham, Piscataway, N.J.) using a fast protein liquid chromatography platform (AKTA; Amersham) following manufacturer's instructions. The eluted proteins were desalted using Hitrap desalting columns (Pharmacia) and analyzed by SDS-PAGE using Coomassie blue (Bio-Safe Coomassie reagent; Bio-Rad, Hercules, Calif.) and by Western blot.
Screening of peptide binding to FOXP3 was performed by surface plasmon resonance (SPR) using ProteOn XPR36 (Bio-Rad, Hercules Calif., USA) optical biosensor. Recombinant protein FOXP3-6His was produced and purified from E. coli as disclosed in previous section and was immobilized covalently onto a GLM sensor chip (176-5012, Bio-Rad) using sulfo-NHS and EDC (Bio-Rad) coupling reagents and the manufacturer's instructions. After protein immobilization, chip surface was treated with ethanolamine to deactivate the excess of reactive esters.
Individual solutions of the peptides to be tested (1-20 μM) were injected by triplicate in running buffer (Phosphate buffered saline, 0.005% (v/v) Tween 20, pH 7.4) at a flow of 30 μl/min. The interspot signal (obtained in the chip surface not immobilized with protein) was used as reference. The results are summarized in Table 6 below as the ratio Peptide of the invention/p60.
In general terms: In SPR one partner is held on a chip, and binding of the other changes the refractive index at the surface.

The target in data set [2] is T2, FOXP3/Runx1 heterodimerization (Homo sapiens, UniProt Q9BZS1).
T2 construct: made in house; host or cells: E. coli BL21 (DE3)
T2 sequence (Q9BZS1 1-431): T1 sequence (Q9BZS1 1-431)
The data set can be described thus: FOXP3/Runx1 heterodimerization inhibition (Alphascreen). It counts as biochemical. The settings on record: peptide 100 μM.
Excerpt: as §1
It has been described that dimerization of FOXP3 is required for its function as a transcriptional regulator. Moreover, interaction between FOXP3 and the transcription factor Runx1, is crucially required for normal hematopoiesis including thymic T-cell development, but also for Treg suppressor activity (Reviewed in Lozano et al, Front Oncol. 2013, 3:294). Both activities are mediated by the intermediate region of Foxp3, which is the area of interaction between P60 and Foxp3. Thus, we studied the effect of P60 and their mutants on the FOXP3/Runx1 heterodimerization, as well as FOXP3/FOXP3 homodimerization by Alphascreen technology according to the manufacturer's instructions (Perkin Elmer, Benelux). AlphaScreen™ is a bead-based technology that is designed to measure the proximity of donor and acceptor beads conjugated to biomolecules of interest.
To measure Foxp3-Runx1 interactions, Foxp3-GST and […] proteins were used.
Recombinant Runx1 expressed in E. Coli with a hexa-histidine tag (obtained as disclosed in section (1) above) was captured by nickel chelate acceptor beads following manufacturer's instructions, whereas the recombinant FOXP3 expressed with a GST tag was captured by glutathione donor beads (Perkin Elmer) following manufacturer's instructions. His-tagged Runx1 (46 nM final concentration) was incubated with 100 nM GST-FOXP3 and the peptides to be tested (added at different concentrations from 1 to 100 μM) for 1 h at room temperature. […]
(Bead proximity is the source of the signal in Alpha formats.)

The nature of data set [3]: Human liver microsomal stability. The following applies: for remaining at 20 min, 1 μM: read-out: % Remaining after 20 min; for remaining at 1 h, 1 μM: 60 min, read-out: % Remaining after 60 min. Type of data set: in vitro ADME. As to the method: (§2) The data collected were analyzed to calculate a half-life (t1/2, min) for tested peptides at a final concentration of 1 μM. Briefly, 5 μL of stock solution of tested peptide (10 mM) were diluted in 495 μL of 1:1 Methanol/Water (final concentration of 100 μM, 50% MeOH). Then, 50 μL of this intermediate solution were diluted in 450 μL of 100 mM potassium phosphate buffer to a concentration of 10 μM (working solution, 5% MeOH). The NADPH regenerating system contains β-Nicotinamide adenine dinucleotide phosphate (Sigma, Cat. # N0505), Isocitric acid (Sigma, Cat. #11252) and Isocitric dehydrogenase (Sigma, Cat. #12002) at a final concentration of 1 unit/mL at incubation.
(§3) Human liver microsomes were obtained from BD Gentest (Cat. #452117) and mouse liver microsomes from Xenotech (Cat. # M1000), to a final concentration of 0.7 mg protein/mL. A volume of 10 μL of peptide solution and 80 μL of microsome solution were added to a 96-well plate and incubated for 10 min at 37° C. The reaction was started by the addition of 10 μL of NADPH regenerating system and stopped by the addition of 300 μL of stop solution (ACN at 4° C., including 100 ng/mL Tolbutamide and 100 ng/mL of Labetalol as internal standard) at different incubation times (0, 5, 10, 20, 30 and 60 min). Concentrations of test compound were quantified by LC-MS/MS methodologies (Shimadzu LC 20-AD/API4000) using peak area ratio of analyte/internal standard and the percent loss of parent compound was calculated under each time point to determine the half-life.
(Liver microsomes are vesicles of endoplasmic reticulum, rich in cytochrome P450 enzymes.)

Data set [4] in a line: Mouse liver microsomal stability. It counts as in vitro ADME. The settings on record: mouse liver microsomes; for remaining at 20 min, 1 μM: read-out: % Remaining after 20 min; for remaining at 1 h, 1 μM: 60 min, read-out: % Remaining after 60 min; for half-life: peptide 1 μM. On the procedure: as §2, §3
Where [5] appears, read: human liver microsomes, peptide 1 μM, read-out: t1/2.

Where a SMILES comes first, the peptide text is derived from it. [ ]: non-standard residue; d: D form.

As to 15 (RDAQSFRKMWPFFAM) [compound 15], the “Binding to Foxp3 Ratio binding Peptide/p60 (fold change)” value in data set [1] worked out at 1.1 fold change. The “Foxp3-Runx1 Inhibition % inhibition (100 μM)” value in data set [2] is reported as 55.6%.
For orientation: amount remaining means what is left of the initial amount, in per cent. For `CSCC[C@@H]1NC(=O)[C@H](C)NC(=O)[C@H](Cc2ccccc2)NC(=O)[C@H](Cc2ccccc2)NC(=O)[C@@H]2CCCN2C(=O)[C@H](Cc2c[nH]c3ccccc23)NC(=O)[C@H](CCSC)NC(=O)[C@H](CCCCN)NC(=O)[C@H](CCCNC(=N)N)NC(=O)[C@H](Cc2ccccc2)NC(=O)[C@H](C)NC(=O)[C@H](CCC(N)=O)NC(=O)[C@H](Cc2ccccc2)NC(=O)[C@@H](C)NC(=O)[C@H](CCCNC(=N)N)NC1=O` [compound 51] (cyclo(R[dA]FQAFRKMWPFFAM)), in data set [3] (human liver microsomes), the amount remaining at 20 min, 1 μM was found to be 48.7% and the fraction remaining at 1 h, 1 μM was determined as 46.1%. Further, in data set [3] (setting [5]), the half-life was found to be 61.7 min. For the same compound, in data set [4], the fraction remaining at 20 min, 1 μM was 62.7%; the amount remaining at 1 h, 1 μM was 47.7%; the half-life turned out to be 63.8 min.
Regarding `CSCC[C@@H]1NC(=O)[C@H](C)NC(=O)[C@H](Cc2ccccc2)NC(=O)[C@H](Cc2ccccc2)NC(=O)[C@@H]2CCCN2C(=O)[C@H](Cc2c[nH]c3ccccc23)NC(=O)[C@H](CCSC)NC(=O)[C@H](CCCCN)NC(=O)[C@H](CCCNC(=N)N)NC(=O)[C@H](Cc2ccccc2)NC(=O)[C@H](C)NC(=O)[C@H](CCC(N)=O)NC(=O)[C@H](Cc2ccccc2)NC(=O)[C@@H](C)NC(=O)[C@H](CCCNC(=N)N)NCCCNC1=O` [compound 52], in data set [3] (human liver microsomes), the amount remaining at 20 min, 1 μM is 76.9% and the amount remaining at 1 h, 1 μM was 40.1%. In data set [3] (setting [5]), the half-life came to 41.4 min. In addition, in data set [4], the share remaining at 20 min, 1 μM amounted to 98.9%; the fraction remaining at 1 h, 1 μM turned out to be 48%; the half-life was determined as 46.9 min.
Regarding `CSCC[C@@H]1NC(=O)[C@H](C)NC(=O)[C@H](Cc2ccccc2)NC(=O)[C@H](Cc2ccccc2)NC(=O)[C@@H]2CCCN2C(=O)[C@H](Cc2c[nH]c3ccccc23)NC(=O)[C@H](CCSC)NC(=O)[C@H](CCCCN)NC(=O)[C@H](CCCNC(=N)N)NC(=O)[C@H](Cc2ccccc2)NC(=O)[C@H](C)NC(=O)[C@H](CCC(N)=O)NC(=O)[C@H](Cc2ccccc2)NC(=O)[C@@H](C)NC(=O)[C@H](CCCNC(=N)N)NCCNC(=O)CNC1=O` [compound 53], in data set [3] (human liver microsomes), the share remaining at 20 min, 1 μM is 32.9% and the share remaining at 1 h, 1 μM worked out at 2.8%. This compound yielded a half-life in data set [3] (human, microsomes) of 11.1 min. Besides, in data set [4], the fraction remaining at 20 min, 1 μM is 57%; the share remaining at 1 h, 1 μM is 3.7%; the half-life is 12.3 min.
In the case of `CSCC[C@@H]1NC(=O)[C@H](C)NC(=O)[C@H](Cc2ccccc2)NC(=O)[C@H](Cc2ccccc2)NC(=O)[C@@H]2CCCN2C(=O)[C@H](Cc2c[nH]c3ccccc23)NC(=O)[C@H](CCSC)NC(=O)[C@H](CCCCN)NC(=O)[C@H](CCCNC(=N)N)NC(=O)[C@H](Cc2ccccc2)NC(=O)[C@H](C)NC(=O)[C@H](CCC(N)=O)NC(=O)[C@H](Cc2ccccc2)NC(=O)[C@@H](C)NC(=O)[C@H](CCCNC(=N)N)NCCOCCNC1=O` [compound 54], the amount remaining at 20 min, 1 μM in data set [3] (human liver microsomes) was 55.7%; in data set [4] it was 97.3%. Further, the amount remaining at 1 h, 1 μM in data set [3] (human liver microsomes) came to 11%; in data set [4] it was 30.1%. For the same compound, the values for the half-life in data set [3] (setting [5]) and in data set [4] were 18.4 min and 30.9 min, respectively.
